One assay has as its target T1, MCR-1 (Homo sapiens, UniProt Q01726).
T1 construct: expressed in transfected cells; host or cells: HEK 293
Put plainly: Melanocortin receptor binding assay, competition with 125I-HP 467, HEK 293 cells expressing hMCR-1. Conditions: for IC50: read-out: MC-1 IC50; for % Disp. MC-1 10 μM: displacement of 125I-HP 467 at 10 μM isoquinoline compound. Put shortly:
(§1)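 Test compounds compete on intact HEK 293 cells carrying hMCR-1 (2×10^4 per tube) or hMCR-4 (4×10^3 per tube), suspended in PBS, 10% calf serum, 1 mM CaCl2.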
Background: In a radioligand displacement assay an active substance lowers the binding of a labelled ligand.

For another assay, the target named is T2, MCR-4 (Homo sapiens, UniProt P32245).
T2 construct: expressed in transfected cells; host or cells: HEK 293
T2 sequence (P32245 whole entry): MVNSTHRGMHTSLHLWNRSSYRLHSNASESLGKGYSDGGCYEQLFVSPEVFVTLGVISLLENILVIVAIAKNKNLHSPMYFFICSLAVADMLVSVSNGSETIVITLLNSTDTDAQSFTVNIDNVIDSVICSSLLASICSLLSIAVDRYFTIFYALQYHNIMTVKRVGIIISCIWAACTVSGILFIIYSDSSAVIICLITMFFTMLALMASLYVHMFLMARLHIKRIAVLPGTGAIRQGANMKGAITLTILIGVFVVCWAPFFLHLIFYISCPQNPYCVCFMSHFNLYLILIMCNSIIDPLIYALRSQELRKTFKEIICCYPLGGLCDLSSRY
Description: Melanocortin receptor binding assay, competition with 125I-HP 467, HEK 293 cells expressing hMCR-4. Conditions: for IC50: read-out: MC-4 IC50. Summed up:
as §1

The mark [1] stands for this setting: TRG 2414 library, inhibition of binding of 125I-HP 467, HEK 293 cells expressing MCR-1.
Where [2] appears, read: TRG 2414 library, inhibition of binding of 125I-HP 467, HEK 293 cells expressing MCR-4.
Where [3] appears, read: TRG 2405 section, inhibition of binding of 125I-HP 467, HEK 293 cells expressing MCR-1.
Setting [4] is: TRG 2405 section, inhibition of binding of 125I-HP 467, HEK 293 cells expressing MCR-4.
Setting [5] is: TRG 2406 and TRG 2407 libraries, inhibition of binding of 125I-HP 467.

Read-outs that look alike come from different tables or passages of the source.

T1 sequence (Q01726 whole entry): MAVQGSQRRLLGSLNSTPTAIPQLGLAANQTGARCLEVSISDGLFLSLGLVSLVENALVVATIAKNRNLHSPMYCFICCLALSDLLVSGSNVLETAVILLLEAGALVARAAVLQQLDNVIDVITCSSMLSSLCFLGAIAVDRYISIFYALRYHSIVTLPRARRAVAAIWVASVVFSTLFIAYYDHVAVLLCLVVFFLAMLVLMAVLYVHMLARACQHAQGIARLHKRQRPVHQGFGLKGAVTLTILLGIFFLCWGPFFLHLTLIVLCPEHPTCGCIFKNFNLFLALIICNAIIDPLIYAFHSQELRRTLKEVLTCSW

For `NCC(CCCCN1Cc2ccccc2C(CNC2CCCCC2)C1c1ccccc1Br)NCc1ccccc1` (stereo not shown) [Cmpd 239], the IC50 at MCR-1 (setting [1]) is 3.3 µM; at MCR-4 (setting [2]) it was 6.27 µM.
On to `CC(C)Cc1ccc(C(C)CNC(CN)CCCCN2Cc3ccccc3C(CNC3CCCCC3)C2c2ccccc2Br)cc1` (stereo not shown) [Cmpd 240], for which the IC50 at MCR-1 (setting [1]) was found to be 8.98 µM; at MCR-4 (setting [2]) it was 9.9 µM.
Take `COc1ccccc1CCNCC1c2ccccc2CN(CCCCC(N)CN)C1c1ccc(Cl)cc1Cl` (stereo not shown) [Cmpd 241]: the “MC-1 IC50” value on MCR-1 (setting [1]) is “no fit”. The “MC-4 IC50” value on MCR-4 (setting [2]) is “no fit”.
For the compound `NCC(N)CCCCN1Cc2ccccc2C(CNCCc2cccc(Cl)c2)C1c1ccc(Cl)cc1Cl` (stereo not shown) [Cmpd 244], at MCR-1 (setting [1]), the IC50 is 44.1 µM. Also, at MCR-4 (setting [2]), the “MC-4 IC50” value was “no fit”.
Turning to `COc1ccc(CNCC2c3ccccc3CN(CCCCC(N)CN)C2c2ccc(Cl)cc2Cl)cc1` (stereo not shown) [Cmpd 247], the “MC-1 IC50” value at MCR-1 (setting [1]) is reported as “no fit”. For the same compound, the “MC-4 IC50” value at MCR-4 (setting [2]) was “no fit”.
On to `COc1ccc(CCNCC2c3ccccc3CN(CCCCC(N)CN)C2c2cc(C(F)(F)F)cc(C(F)(F)F)c2)cc1` (stereo not shown) [Cmpd 262], for which the “MC-1 IC50” value at MCR-1 (setting [1]) is on record as “no fit”. Moreover, on MCR-4 (setting [2]), the “MC-4 IC50” value is listed as “no fit”.
For the compound `COc1ccccc1CCNCC1c2ccccc2CN(CCCCC(N)CN)C1c1ccc(Oc2ccccc2)cc1` (stereo not shown) [Cmpd 265], the “MC-1 IC50” value at MCR-1 (setting [1]) was “no fit”. Moreover, the “MC-4 IC50” value at MCR-4 (setting [2]) is listed as “no fit”.
For `NCC(N)CCCCN1Cc2ccccc2C(CNCCc2cccc(Cl)c2)C1c1ccc(Oc2ccccc2)cc1` (stereo not shown) [Cmpd 268], on MCR-1 (setting [1]), the “MC-1 IC50” value is “no fit”. For the same compound, at MCR-4 (setting [2]), the “MC-4 IC50” value is reported as “no fit”.
For the compound `COc1ccc(CNCC2c3ccccc3CN(CCCCC(N)CN)C2c2ccc(Oc3ccccc3)cc2)cc1` (stereo not shown) [Cmpd 271], at MCR-1 (setting [1]), the “MC-1 IC50” value is on record as “no fit”. Besides, the “MC-4 IC50” value at MCR-4 (setting [2]) is recorded as “no fit”.
In the case of `COc1ccc(CCNCC2c3ccccc3CN(CCCCC(N)CN)C2c2ccc(Oc3ccccc3)cc2)cc1` (stereo not shown) [Cmpd 274], on MCR-1 (setting [1]), the “MC-1 IC50” value is given as “no fit”. Also, the “MC-4 IC50” value at MCR-4 (setting [2]) is listed as “no fit”.
For `CCCOc1ccc(C2C(CNCCc3ccccc3OC)c3ccccc3CN2CCCCC(N)CN)cc1` (stereo not shown) [Cmpd 277], at MCR-1 (setting [1]), the “MC-1 IC50” value is “no fit”. On MCR-4 (setting [2]), the “MC-4 IC50” value is listed as “no fit”.
In the case of `CCCOc1ccc(C2C(CNCCc3cccc(Cl)c3)c3ccccc3CN2CCCCC(N)CN)cc1` (stereo not shown) [Cmpd 280], the “MC-1 IC50” value at MCR-1 (setting [1]) was “no fit”. In addition, at MCR-4 (setting [2]), the “MC-4 IC50” value is listed as “no fit”.
`CCCOc1ccc(C2C(CNCc3ccc(OC)cc3)c3ccccc3CN2CCCCC(N)CN)cc1` (stereo not shown) [Cmpd 283]: the “MC-1 IC50” value on MCR-1 (setting [1]) was “no fit”. Further, the “MC-4 IC50” value on MCR-4 (setting [2]) is reported as “no fit”.
For the compound `Cn1cccc1C1C(CNC2CCCCC2)c2ccccc2CN1CCN` (stereo not shown) [TRG 2405-4], the IC50 at MCR-1 (setting [3]) was 2.17 µM; at MCR-4 (setting [4]), 11.6 µM. Also, the “% Disp. MC-1 10 μM” value on MCR-1 (first of duplicate) was determined as 76.8%; on MCR-1 (second of duplicate) it was 77.7%.
The matching figures for `NCCN1Cc2ccccc2C(CNC2CCCCC2)C1c1cc(C(F)(F)F)cc(C(F)(F)F)c1` (stereo not shown) [TRG 2405-28]: 8.75 µM, 9.24 µM, 52% and 52.5%.
The matching figures for `Cc1cccc(C2C(CNC3CCCCC3)c3ccccc3CN2CCN)c1` (stereo not shown) [TRG 2405-47]: 14.3 µM, 18.9 µM, 42.3% and 45.8%.
In the same order, the values of `NCCN1Cc2ccccc2C(CNC2CCCCC2)C1c1ccc([N+](=O)[O-])o1` (stereo not shown) [TRG 2405-80] are 8.66 µM, 20.8 µM, 30.8% and 52.9%.
As for `NCCN1Cc2ccccc2C(CNC2CCCCC2)C1c1ccc[nH]1` (stereo not shown) [TRG 2405-85], the IC50 at MCR-1 (setting [3]) came to 5.98 µM; at MCR-4 (setting [4]), 33.5 µM. Besides, the “% Disp. MC-1 10 μM” value is given as 57.1% at MCR-1 (first of duplicate) and 59.8% on MCR-1 (second of duplicate).
In the same order, the values of `CNC(CN)CN1Cc2ccccc2C(CNC2CCCCC2)C1c1ccc(Cl)cc1Cl` (stereo not shown) [TRG 2405-100] are 12.2 µM, 11.2 µM, 54.2% and 59.6%.
In the same order, the values of `CNC(CN)CN1Cc2ccccc2C(CNC2CCCCC2)C1c1ccccn1` (stereo not shown) [TRG 2405-111] are 7.48 µM, 17.1 µM, 57.2% and 51%.
The matching figures for `CNC(CN)CN1Cc2ccccc2C(CNC2CCCCC2)C1c1cccc(Oc2ccc(OC)cc2)c1` (stereo not shown) [TRG 2405-124]: 5.16 µM, 3.1 µM, 65.2% and 63%.
Turning to `CNC(CN)CN1Cc2ccccc2C(CNC2CCCCC2)C1c1ccc(F)c(Br)c1` (stereo not shown) [TRG 2405-126], the figures for the IC50 at MCR-1 (setting [3]) and on MCR-4 (setting [4]) were 5.34 µM and 12.8 µM, respectively. Besides, the “% Disp. MC-1 10 μM” value on MCR-1 (first of duplicate) stood at 52.4%; at MCR-1 (second of duplicate) it was 58.4%.
Regarding `CNC(CN)CN1Cc2ccccc2C(CNC2CCCCC2)C1c1cccc(O)c1` (stereo not shown) [TRG 2405-133], the IC50 is 20 µM at MCR-1 (setting [3]) and 12.4 µM at MCR-4 (setting [4]). In addition, the results for the “% Disp. MC-1 10 μM” value on MCR-1 (first of duplicate) and at MCR-1 (second of duplicate) were 37.7% and 44.1%, respectively.
`CNC(CN)CN1Cc2ccccc2C(CNC2CCCCC2)C1c1ccc(C(F)(F)F)cc1` (stereo not shown) [TRG 2405-148]: the IC50 on MCR-1 (setting [3]) is 10.3 µM; at MCR-4 (setting [4]) it was 8.95 µM. Further, the entries for the “% Disp. MC-1 10 μM” value at MCR-1 (first of duplicate) and on MCR-1 (second of duplicate) were 63.7% and 57.4%, respectively.
In the same order, the values of `CNC(CN)CN1Cc2ccccc2C(CNC2CCCCC2)C1c1ccc([N+](=O)[O-])o1` (stereo not shown) [TRG 2405-170] are 4.81 µM, 10.2 µM, 68.4% and 57.5%.
`CNC(CN)CCCCN1Cc2ccccc2C(CNCc2ccccc2O)C1c1cccn1C` (stereo not shown) [TRG 2406-1]: the IC50 was found to be 3.79 µM on MCR-1 (setting [5]) and 5.85 µM on MCR-4 (setting [5]).
`NCCN1Cc2ccccc2C(CNCc2ccccc2O)C1c1cccc(Oc2ccc(Cl)c(Cl)c2)c1` (stereo not shown) [TRG 2406-2]: the IC50 turned out to be 7.86 µM on MCR-1 (setting [5]) and 3.86 µM at MCR-4 (setting [5]).
The matching figures for `CNC(CN)CN1Cc2ccccc2C(CNCc2ccccc2O)C1c1cccc(Oc2ccc(Cl)c(Cl)c2)c1` (stereo not shown) [TRG 2406-3]: 12.3 µM and 9.69 µM.
In the same order, the values of `COc1ccc(Oc2cccc(C3C(CNCc4ccccc4O)c4ccccc4CN3CCN)c2)cc1` (stereo not shown) [TRG 2406-5] are 6.16 µM and 3.41 µM.
As for `CNC(CN)CN1Cc2ccccc2C(CNCc2ccccc2O)C1c1cccc(Oc2ccc(OC)cc2)c1` (stereo not shown) [TRG 2406-6], the values for the IC50 at MCR-1 (setting [5]) and on MCR-4 (setting [5]) were 3.17 µM and 1.36 µM, respectively.
The matching figures for `CNC(CN)CCCCN1Cc2ccccc2C(CNCc2ccccc2O)C1c1cccc(Oc2ccc(OC)cc2)c1` (stereo not shown) [TRG 2406-7]: 1.23 µM and 1.74 µM.
For `NCCN1Cc2ccccc2C(CNCc2ccccc2O)C1c1cccc(Oc2ccccc2)c1` (stereo not shown) [TRG 2406-8], the IC50 on MCR-1 (setting [5]) is 7.48 µM; on MCR-4 (setting [5]), 5.67 µM.
In the same order, the values of `CNC(CN)CN1Cc2ccccc2C(CNCc2ccccc2O)C1c1cccc(Oc2ccccc2)c1` (stereo not shown) [TRG 2406-9] are 3.66 µM and 2.1 µM.
On to `CNC(CN)CCCCN1Cc2ccccc2C(CNCc2ccccc2O)C1c1cccc(Oc2ccccc2)c1` (stereo not shown) [TRG 2406-10], for which the results for the IC50 at MCR-1 (setting [5]) and at MCR-4 (setting [5]) were 0.85 µM and 0.26 µM, respectively.
The matching figures for `CNC(CN)CN1Cc2ccccc2C(CNCc2ccccc2O)C1c1ccc(Oc2ccccc2)cc1` (stereo not shown) [TRG 2406-12]: 5.44 µM and 2.62 µM.
Regarding `CNC(CN)CCCCN1Cc2ccccc2C(CNCc2ccccc2O)C1c1ccc(Oc2ccccc2)cc1` (stereo not shown) [TRG 2406-13], the IC50 on MCR-1 (setting [5]) is 0.18 µM; at MCR-4 (setting [5]), 1.29 µM.
The matching figures for `CCCOc1ccc(C2C(CNCc3ccccc3O)c3ccccc3CN2CCN)cc1` (stereo not shown) [TRG 2406-14]: 8.31 µM and 5.36 µM.
In the same order, the values of `CCCOc1ccc(C2C(CNCc3ccccc3O)c3ccccc3CN2CC(CN)NC)cc1` (stereo not shown) [TRG 2406-15] are 7.22 µM and 2.75 µM.
The matching figures for `CCCOc1ccc(C2C(CNCc3ccccc3O)c3ccccc3CN2CCCCC(CN)NC)cc1` (stereo not shown) [TRG 2406-16]: 2.12 µM and 11.6 µM.
For the compound `CCn1c2ccccc2c2cc(C3C(CNCc4ccccc4O)c4ccccc4CN3CCN)ccc21` (stereo not shown) [TRG 2406-20], the IC50 on MCR-1 (setting [5]) is 10.8 µM; at MCR-4 (setting [5]), 3.3 µM.
In the same order, the values of `CCn1c2ccccc2c2cc(C3C(CNCc4ccccc4O)c4ccccc4CN3CC(CN)NC)ccc21` (stereo not shown) [TRG 2406-21] are 6.25 µM and 1.53 µM.
As for `CCn1c2ccccc2c2cc(C3C(CNCc4ccccc4O)c4ccccc4CN3CCCCC(CN)NC)ccc21` (stereo not shown) [TRG 2406-22], the IC50 on MCR-1 (setting [5]) was found to be 2.12 µM; on MCR-4 (setting [5]), 1.79 µM.
In the same order, the values of `CNC(CN)CCCCN1Cc2ccccc2C(CN(C)c2ccccc2)C1c1ccc(Cl)cc1Cl` (stereo not shown) [TRG 2407-2] are 5.75 µM and 6.26 µM.
The matching figures for `CNC(CN)CCCCN1Cc2ccccc2C(CNc2ccccc2Cl)C1c1ccc(Cl)cc1Cl` (stereo not shown) [TRG 2407-3]: 8.46 µM and 9.45 µM.

Broadly, the IC50 is the midpoint of a concentration-inhibition curve.
